These results are taken from ChEMBL document CHEMBL4334516, “Kinase Chemodiversity from the Arctic: The Breitfussins” (J Med Chem, 2019).

A short description of data set [1]: Kinetic solubility in pH 7.4 aqueous buffer at 500 uM by spectrophotometry. The format is physicochemical. To be noted: read-out: Kinetic_solubility.
In data set [2] the target is T1, Serine/threonine-protein kinase 17B (Homo sapiens, UniProt O94768).
T1 sequence (O94768 whole entry): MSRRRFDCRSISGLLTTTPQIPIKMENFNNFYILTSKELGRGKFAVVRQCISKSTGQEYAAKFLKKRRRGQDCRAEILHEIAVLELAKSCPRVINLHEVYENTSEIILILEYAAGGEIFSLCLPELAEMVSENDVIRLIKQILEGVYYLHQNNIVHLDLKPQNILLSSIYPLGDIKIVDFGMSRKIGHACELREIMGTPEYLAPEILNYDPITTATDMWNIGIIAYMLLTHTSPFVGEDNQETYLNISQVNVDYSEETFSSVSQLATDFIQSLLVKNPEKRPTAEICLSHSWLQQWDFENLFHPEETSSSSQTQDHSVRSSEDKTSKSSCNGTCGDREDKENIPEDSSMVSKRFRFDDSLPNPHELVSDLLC
Nature of the data set: Binding affinity to wild-type human full length DRAK2 (M1 to C372 residues) expressed in bacterial expression system by active-site directed competition binding assay based Kinomescan method.

The nature of data set [3]: Toxicity in zebrafish embryos assessed as survival at 1396 uM after 72 hrs (reference value: 95%). On the set-up: species or system Danio rerio. The settings on record: in vivo.
Data set [4] can be described thus: Toxicity in zebrafish embryos assessed as induction of tail degeneration by measuring unaffected embryos level at 14 uM after 72 hrs (reference value: 100%). Format: tissue-based, Danio rerio. To be noted: in vivo.
In data set [5] the target is Mitogen-activated protein kinase kinase kinase 9 (Homo sapiens, UniProt P80192). Nature of the data set: Inhibition of MLK1 (unknown origin) assessed as residual enzyme activity at 50 uM by [33P]-ATP filter binding kinase assay relative to control.
Data set [6] has as its target T2, Mitogen-activated protein kinase kinase kinase kinase 2 (Homo sapiens) (UniProt Q12851).
T2 sequence (whole entry): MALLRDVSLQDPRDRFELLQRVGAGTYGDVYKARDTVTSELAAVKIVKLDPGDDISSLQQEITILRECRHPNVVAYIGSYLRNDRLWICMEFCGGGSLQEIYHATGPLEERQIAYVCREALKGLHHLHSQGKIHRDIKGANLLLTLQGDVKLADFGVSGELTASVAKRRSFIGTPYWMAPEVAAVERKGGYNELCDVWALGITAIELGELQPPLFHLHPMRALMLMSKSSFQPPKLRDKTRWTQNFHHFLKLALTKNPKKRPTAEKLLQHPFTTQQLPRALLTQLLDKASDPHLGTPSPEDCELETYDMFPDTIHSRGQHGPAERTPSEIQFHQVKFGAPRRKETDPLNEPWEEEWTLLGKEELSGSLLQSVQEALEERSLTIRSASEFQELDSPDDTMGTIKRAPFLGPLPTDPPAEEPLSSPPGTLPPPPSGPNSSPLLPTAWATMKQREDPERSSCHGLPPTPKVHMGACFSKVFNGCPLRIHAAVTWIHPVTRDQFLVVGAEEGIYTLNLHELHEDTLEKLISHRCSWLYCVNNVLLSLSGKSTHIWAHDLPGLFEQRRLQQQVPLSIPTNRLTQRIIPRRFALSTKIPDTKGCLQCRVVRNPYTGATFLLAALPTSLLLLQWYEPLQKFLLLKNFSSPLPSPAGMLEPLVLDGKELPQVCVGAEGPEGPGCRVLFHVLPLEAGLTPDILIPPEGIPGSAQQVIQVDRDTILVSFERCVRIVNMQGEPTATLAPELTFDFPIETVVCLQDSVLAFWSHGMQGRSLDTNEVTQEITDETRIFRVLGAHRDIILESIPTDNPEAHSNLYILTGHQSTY
In words: Inhibition of GCK (unknown origin) assessed as residual enzyme activity at 50 uM by [33P]-ATP filter binding kinase assay relative to control.

For the next data set, the system named is PLC-PRF-5. Nature of the data set: Cytotoxicity in human PLC/PRF/5 cells assessed as reduction in cell viability incubated for 72 hrs by SRB assay. The settings on record: PLC-PRF-5, 72 h.
In data set [7] the target is Serine/threonine-protein kinase SIK3 (Homo sapiens, UniProt Q9Y2K2). Nature of the data set: Binding affinity to wild-type human partial length SIK3 (A90 to L395 residues) expressed in mammalian expression system assessed as residual binding level at 10 uM by active-site directed competition binding assay based Kinomescan method relative to control.
Data set [8] has as its target Serine/threonine-protein kinase pim-3 (Homo sapiens, UniProt Q86V86). In words: Binding affinity to wild-type human partial length PIM3 (G16 to A317 residues) expressed in bacterial expression system by active-site directed competition binding assay based Kinomescan method.
Data set [9] in a line: Toxicity in zebrafish embryos assessed as induction of scoliosis by measuring unaffected embryos level at 1.4 uM after 72 hrs (reference value: 100%). On the set-up: species or system Danio rerio. To be noted: in vivo.
In data set [10] the target is Mitogen-activated protein kinase kinase kinase 11 (Homo sapiens, UniProt Q16584). Nature of the data set: Binding affinity to wild-type human partial length MLK3 (I77 to W399 residues) expressed in bacterial expression system assessed as residual binding level at 10 uM by active-site directed competition binding assay based Kinomescan method relative to control.
Data set [11] can be described thus: Toxicity in zebrafish embryos assessed as induction of tail degeneration by measuring unaffected embryos level at 1.4 uM after 72 hrs (reference value: 100%). Format: tissue-based, Danio rerio. To be noted: in vivo.
Data set [12] deals with T3, Mitogen-activated protein kinase kinase kinase 7 (Homo sapiens) (UniProt O43318).
T3 sequence (whole entry): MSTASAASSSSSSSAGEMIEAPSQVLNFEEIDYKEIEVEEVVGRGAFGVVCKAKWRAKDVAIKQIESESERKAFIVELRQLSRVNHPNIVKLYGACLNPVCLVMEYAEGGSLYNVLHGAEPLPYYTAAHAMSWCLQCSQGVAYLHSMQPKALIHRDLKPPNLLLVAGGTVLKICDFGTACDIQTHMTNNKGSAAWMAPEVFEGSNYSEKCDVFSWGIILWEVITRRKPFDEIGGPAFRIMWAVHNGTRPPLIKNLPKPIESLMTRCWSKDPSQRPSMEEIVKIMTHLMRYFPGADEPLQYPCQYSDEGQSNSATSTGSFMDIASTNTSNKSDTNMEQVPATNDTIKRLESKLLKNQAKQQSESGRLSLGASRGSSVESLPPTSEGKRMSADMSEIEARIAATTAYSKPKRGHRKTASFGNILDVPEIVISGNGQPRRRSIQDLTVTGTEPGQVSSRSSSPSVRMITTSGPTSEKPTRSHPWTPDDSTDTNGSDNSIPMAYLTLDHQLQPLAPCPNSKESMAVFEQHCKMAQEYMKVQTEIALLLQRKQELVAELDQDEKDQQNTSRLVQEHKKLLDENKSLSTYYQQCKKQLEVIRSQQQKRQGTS
In words: Binding affinity to wild-type human partial length TAK1 (M1 to Q303 residues) expressed in mammalian expression system assessed as residual binding level at 10 uM by active-site directed competition binding assay based Kinomescan method relative to control.

In data set [13] the target is AMP-activated protein kinase, AMPK (Homo sapiens) (UniProt P54646+O43741+P54619+Q9UGJ0+Q9Y478+Q13131+Q9UGI9). Nature of the data set: Inhibition of AMPK (unknown origin) assessed as residual enzyme activity at 50 uM by [33P]-ATP filter binding kinase assay relative to control. The format is protein-complex assay.

≈ marks a conversion by molar mass, not a printed value.

Sequence of Mitogen-activated protein kinase kinase kinase 9 (P80192 whole entry, looked up): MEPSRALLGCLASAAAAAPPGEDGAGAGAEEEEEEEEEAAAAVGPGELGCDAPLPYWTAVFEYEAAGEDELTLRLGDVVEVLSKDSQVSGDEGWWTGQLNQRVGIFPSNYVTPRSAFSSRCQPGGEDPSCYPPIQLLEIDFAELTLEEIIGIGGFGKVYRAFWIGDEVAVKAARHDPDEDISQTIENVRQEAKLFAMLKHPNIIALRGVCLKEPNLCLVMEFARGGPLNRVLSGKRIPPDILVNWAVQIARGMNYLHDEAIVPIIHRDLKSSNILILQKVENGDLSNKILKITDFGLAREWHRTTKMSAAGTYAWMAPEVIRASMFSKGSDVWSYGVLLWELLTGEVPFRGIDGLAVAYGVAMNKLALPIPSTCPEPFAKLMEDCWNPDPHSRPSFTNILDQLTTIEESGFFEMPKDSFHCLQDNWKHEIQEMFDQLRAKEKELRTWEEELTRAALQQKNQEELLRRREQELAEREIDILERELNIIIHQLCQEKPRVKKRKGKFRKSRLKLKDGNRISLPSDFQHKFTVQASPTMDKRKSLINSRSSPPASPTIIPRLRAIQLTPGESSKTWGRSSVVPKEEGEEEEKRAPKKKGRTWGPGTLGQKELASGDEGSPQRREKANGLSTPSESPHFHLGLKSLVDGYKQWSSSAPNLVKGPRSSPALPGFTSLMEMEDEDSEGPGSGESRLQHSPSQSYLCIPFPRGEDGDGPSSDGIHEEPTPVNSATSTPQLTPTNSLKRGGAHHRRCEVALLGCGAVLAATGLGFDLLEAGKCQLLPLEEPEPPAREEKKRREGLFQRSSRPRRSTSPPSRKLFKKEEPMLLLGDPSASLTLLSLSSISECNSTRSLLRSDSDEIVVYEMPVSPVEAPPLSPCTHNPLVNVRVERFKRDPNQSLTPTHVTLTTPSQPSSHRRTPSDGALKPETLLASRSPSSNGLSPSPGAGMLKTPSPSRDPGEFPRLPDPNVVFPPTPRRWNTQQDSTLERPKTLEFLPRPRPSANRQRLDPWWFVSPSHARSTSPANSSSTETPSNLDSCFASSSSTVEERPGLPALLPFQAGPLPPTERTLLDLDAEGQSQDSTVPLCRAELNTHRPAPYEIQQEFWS
Sequence of Mitogen-activated protein kinase kinase kinase 11 (Q16584 whole entry, looked up, the tested form may be a part): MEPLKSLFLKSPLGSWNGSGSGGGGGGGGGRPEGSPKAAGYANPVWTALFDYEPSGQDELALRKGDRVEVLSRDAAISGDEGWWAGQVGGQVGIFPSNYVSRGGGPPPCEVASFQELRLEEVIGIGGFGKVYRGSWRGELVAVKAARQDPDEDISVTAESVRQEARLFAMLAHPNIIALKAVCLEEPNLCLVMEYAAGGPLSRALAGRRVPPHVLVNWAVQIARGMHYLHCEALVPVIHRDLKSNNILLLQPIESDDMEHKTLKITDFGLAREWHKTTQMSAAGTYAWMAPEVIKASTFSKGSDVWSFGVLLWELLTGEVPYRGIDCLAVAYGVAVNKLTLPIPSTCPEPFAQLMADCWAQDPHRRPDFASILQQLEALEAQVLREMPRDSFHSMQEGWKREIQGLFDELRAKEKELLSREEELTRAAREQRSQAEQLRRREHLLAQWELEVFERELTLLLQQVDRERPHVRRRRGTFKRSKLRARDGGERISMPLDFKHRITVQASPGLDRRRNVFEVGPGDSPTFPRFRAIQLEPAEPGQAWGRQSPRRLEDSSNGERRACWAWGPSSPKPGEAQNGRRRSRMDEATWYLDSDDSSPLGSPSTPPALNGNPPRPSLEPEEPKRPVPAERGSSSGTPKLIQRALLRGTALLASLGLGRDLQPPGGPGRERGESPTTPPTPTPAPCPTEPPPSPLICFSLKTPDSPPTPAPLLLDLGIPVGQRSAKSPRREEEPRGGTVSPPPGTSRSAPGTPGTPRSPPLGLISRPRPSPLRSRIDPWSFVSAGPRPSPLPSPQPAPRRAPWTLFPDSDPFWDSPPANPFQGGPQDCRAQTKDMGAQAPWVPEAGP
Sequence of Serine/threonine-protein kinase SIK3 (Q9Y2K2 whole entry, looked up, the tested form may be a part): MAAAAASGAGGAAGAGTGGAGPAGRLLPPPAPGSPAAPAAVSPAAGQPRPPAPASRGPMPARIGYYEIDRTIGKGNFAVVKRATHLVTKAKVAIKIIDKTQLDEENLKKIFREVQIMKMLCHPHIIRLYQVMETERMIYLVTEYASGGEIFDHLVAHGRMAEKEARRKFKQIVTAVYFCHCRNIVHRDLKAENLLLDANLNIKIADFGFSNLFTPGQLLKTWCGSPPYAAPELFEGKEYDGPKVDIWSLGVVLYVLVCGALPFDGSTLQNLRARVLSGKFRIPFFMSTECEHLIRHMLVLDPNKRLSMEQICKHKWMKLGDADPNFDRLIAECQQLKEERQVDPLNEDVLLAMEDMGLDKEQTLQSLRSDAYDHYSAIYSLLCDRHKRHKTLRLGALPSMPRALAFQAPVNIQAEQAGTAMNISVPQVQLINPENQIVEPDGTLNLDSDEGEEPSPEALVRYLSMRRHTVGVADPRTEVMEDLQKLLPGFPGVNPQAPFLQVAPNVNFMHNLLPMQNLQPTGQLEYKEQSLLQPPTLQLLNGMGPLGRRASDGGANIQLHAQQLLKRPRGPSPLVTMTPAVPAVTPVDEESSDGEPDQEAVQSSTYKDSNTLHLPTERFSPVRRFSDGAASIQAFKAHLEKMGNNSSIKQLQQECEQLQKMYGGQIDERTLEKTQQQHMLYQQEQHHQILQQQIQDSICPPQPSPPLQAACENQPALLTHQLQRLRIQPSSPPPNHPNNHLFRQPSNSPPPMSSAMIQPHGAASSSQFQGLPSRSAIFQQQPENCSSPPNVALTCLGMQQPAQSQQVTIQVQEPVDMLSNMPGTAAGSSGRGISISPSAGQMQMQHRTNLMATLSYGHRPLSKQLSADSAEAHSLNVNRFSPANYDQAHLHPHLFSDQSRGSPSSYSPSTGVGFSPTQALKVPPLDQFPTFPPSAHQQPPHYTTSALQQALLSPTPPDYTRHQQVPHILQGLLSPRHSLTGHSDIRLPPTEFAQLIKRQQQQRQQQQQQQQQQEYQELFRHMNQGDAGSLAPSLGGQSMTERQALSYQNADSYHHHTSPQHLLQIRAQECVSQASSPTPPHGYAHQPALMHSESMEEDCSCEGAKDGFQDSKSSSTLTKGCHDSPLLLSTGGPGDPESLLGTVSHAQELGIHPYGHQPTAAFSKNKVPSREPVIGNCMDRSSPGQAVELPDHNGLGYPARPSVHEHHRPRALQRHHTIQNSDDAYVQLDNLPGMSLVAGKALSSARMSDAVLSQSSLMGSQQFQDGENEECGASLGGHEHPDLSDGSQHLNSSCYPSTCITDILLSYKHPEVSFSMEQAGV

A word on the Kd: it is the constant that tells how readily two partners part at equilibrium. The low end stands for tighter binding, the high end for weaker binding. As a reminder, the IC50 is the concentration needed to halve the response being measured. Take `COc1cc2c(-c3cnc(-c4ccc[nH]4)o3)c[nH]c2cc1Br`: the solubility kinetic at 500 µM in data set [1] came to 156 µM (≈ 55.9 µg/mL). In addition, the Kd in [2] worked out at 390 nM; in [8], 4700 nM. For the same molecule, the survival at 72 h, 1396 µM in data set [3] is 0%. The Activity is 0% in [4]; 5% in data set [5]; 7% in [6]; 94% in [7]; 89% in data set [9]; 56% in data set [10]. In addition, the values for the Activity in data set [11] and in [12] were 100% and 70%, respectively. For the same molecule, the IC50 in the data set with PLC-PRF-5 came out at 1500 nM.

Take `COc1cc(Br)cc2[nH]cc(-c3oc(-c4ccc[nH]4)nc3I)c12`: the Activity in data set [13] stood at 28%.
